# Marks after values point to notes of the source that are not given here.
# Columns and labels:
# [1] = test system: Wistar male rats; experiment: Blood glucose level in intact rats; type: in vivo; settings: for Blood glucose level (mg/dl) 2 hours after / Blood glucose level (mg/dl) 5 hours after: deprived of food; for Blood glucose level (mg/dl) 2 hours before: intragastral four days
# Method: (§1) Experiments were carried out on Wistar male rats weighing 250-300 g. Experimental diabetes was induced with single intravenous injection of streptozotocine (the Synthez cooperative enterprise at the IMBG of the Academy of Sciences of Ukraine) at a dose 42 mg/kg to rats which were preliminarily fasting for 24 hours with access to food immediately following injection. Rats were selected for experiment 2 weeks after diabetes induction with glycemia 120-180 mg/dl. Each group included 12 animals.
# (§2) The compounds were intragastrally administered to intact animals and to rats with streptozotocine diabetes for four days at daily doses 50 µg/kg and 500 µg/kg in water solution at a rate of 1 ml per 200 g of body mass. Intact animals were given the compounds III and XLIV, and rats with induced diabetes were given the compound XLIV. Check blood glucose level determination was done at the day of experiment, then animals were administered the test compounds and were deprived of food. The control animals received a respective water volume. Effect was estimated by change in blood glucose level in 2 and 5 hours. Then animals received forage and 24 hours after the last drug administration blood was again sampled for examination. 0.1 ml of blood were collected from the tail vein. Glucose level was determined using the o-toluidine method.
# (§3) Glucose level was calculated in mg/dl using standard glucose solutions. Then the degree of change in glucose level in relation to the initial level was determined for each animal with its expression in percent from the initial level. Final calculation was performed for each group of animals. Each group included 10 animals.
# [2] = test system: Lewis pulmonary carcinoma (LLC); experiment: Lewis pulmonary carcinoma growth; type: in vivo; settings: mice with LLC, day 12
# Method: Experiments were carried out on male mice with initial body mass 18-20 g. Each group included 10 animals. […] Administration of compounds II, III, IX, X, XII, XIV, XV, XVI, XVII, XIX, XXII, XLVII in drinking water was commenced 24 hours following transplantation and continued till the end of experiment. Effect of the compounds on Lewis rat pulmonary carcinoma (LLC) was estimated by day 12 of experiment by change in tumor volume expressed in mm^3.
# [3] = test system: Wistar male rats; experiment: Blood glucose level in rats with streptozotocine diabetes; type: in vivo; settings: for Blood glucose level: Initial level: intragastral four days
# Method: as §1, §2, §3
# [4] = test system: superoxide anion-radical; experiment: Superoxide anion-radical formation in the xantine-xantine oxidase system (chemiluminescence); type: biochemical
# [5] = test system: lipid peroxidation (LP) products; experiment: Antioxidant activity in vivo: acute toxic hepatic lesion with CCl4; settings: rats, CCl4 3 days; for Liver, MDA, nM/mg of tissue / Liver, diene conjugates, E232/mg of tissue / Liver, diene ketones, trienes E278/mg of tissue: intragastral
# Method: Antioxidant activity was studied in an in vivo experiment on the model of acute toxic hepatic lesion with carbon quadrichloride (CCl4).
# Experiment was carried out on 40 mongrel male rats with initial body mass 190-200 g fed a standard vivarium ration. Each group included 10 animals. Hepatic lesion (experimental hepatitis) was induced in animals by intragastral administration of 0.25 ml per 100 g of body mass CCl4 in the form of 50% solution in vaseline oil for 3 days [Vengerovsky A.I., Chuchalin V.S., Pauls O.V., Saratikov A.S. Effect of hepatoprotectors on lipid metabolism in hepatitis induced by Ccl4. Bulletin of Experimental Biology (1987), No 4, pp. 430-432]. […] Animals of the control group were administered CCl4 as described above (group 2). Intact animals were orally given normal saline in an equivalent amount (group 1).
# The content of primary lipid peroxidation (LP) products - diene conjugates, diene ketones and trienes - were determined using the published method [Volchegorsky I.A., Nalimov A.G., Yarovinsky B.G., Lifshits R.I. Comparison of different approaches to determining lipid peroxidation products in heptane-isopropanolic blood extracts. Voprosy Meditsinskoy Chimii (Problems of Medical Chemistry) (1989),No 1, pp. 127-131]. Content calculation of LP products was done correlating the values of respective extinctions with 1 ml of test sample.
# The amount of LP final product - malonic dialdehyde (MDA) - was determined by the test with thiobarbituric acid (TBA) [Korobeinikova E.N. Modification of lipid peroxidation products in the reaction with thiobarbituric acid. Laboratornoye delo (Laboratory Matter) (1989), No 7, pp. 8-10]. Concentration of TBA-active product was calculated using regression equation. MDA content in the liver of experimental animals was assessed using the modified method [Stalnaya I.D., Garishvili T.G. The method of determining malonic dialdehyde using thiobarbituric acid. In: Modem methods in biochemistry. Moscow, Meditsina publishers. (1977), pp. 66-69], performing preliminary extraction of lipids according to Folch [Cates M. Technology of Lipidology. Moscow, Mir publishers (1975), pp. 74-76].
# [6] = test system: white mongrel male rats; experiment: Carrageenan paw edema, cutaneous gel application (series 2); type: in vivo
# Method: Experiment was carried out on white mongrel male rats weighing 280-300 g. Carrageenan-induced edema was caused according to the method of Winter et al. [[inter et al. In: De Rosa M., Giroud J.P., Willoughby D.A. Studies of the mediators of the acute inflammatory reponse induced in rats in different sites by carrageenan and turpentine. […] Paw volume measurement was done using a plethysmograph (Ugo Basile) 1, 3 and 4 hours after carrageenan administration. Inhibition of inflammatory reaction expressed in percent, was calculated according to the formula: 100-[(R-L(exper.))/(L):(R-L(control))/(L)x100](%) [formula] where R - the right paw volume, L - the left paw volume.
# Series 2 of experiment. 2% carrageenan solution was injected sublaterally into paws of rats. In 1 minute 0.1 ml of gel comprising the test compounds were applied on the right paw. Gel base consisted of propylene glycol dissolved in the mixture of water and ethanol. Concentration of the compounds in the gel was 1%. Volume of paws was measured 4 hours after carrageenan administration.
molecule,measurement,setting,value
γ-L-glutamylhistamine [compound XLIV],Blood glucose level (mg/dl) 24 hours after,[1]; 50 µg/kg,79.9 ± 5.2 mg/dL
same,Blood glucose level (mg/dl) 24 hours after,[1]; 500 µg/kg,83.7 ± 4.0 mg/dL
same,Blood glucose level (mg/dl) 2 hours after,[1]; 50 µg/kg,60.8 ± 4.0 mg/dL
same,Blood glucose level (mg/dl) 5 hours after,[1]; 50 µg/kg,64.0 ± 3.1 mg/dL
same,Blood glucose level (mg/dl) 2 hours after,[1]; 500 µg/kg,64.8 ± 4.2 mg/dL
same,Blood glucose level (mg/dl) 5 hours after,[1]; 500 µg/kg,65.9 ± 3.9 mg/dL
same,Blood glucose level (mg/dl) 2 hours before,[1]; 50 µg/kg,81.2 ± 3.8 mg/dL
same,Blood glucose level (mg/dl) 2 hours before,[1]; 500 µg/kg,80.8 ± 2.7 mg/dL
"O=C(O)CCCC(=O)NCCc1c[nH]cn1 [compound III, N-GLUTARYLHISTAMINE]",Blood glucose level (mg/dl) 24 hours after,[1]; 50 µg/kg,66.5 ± 3.3 mg/dL
same,Blood glucose level (mg/dl) 24 hours after,[1]; 500 µg/kg,73.1 ± 3.4 mg/dL
same,Blood glucose level (mg/dl) 2 hours after,[1]; 50 µg/kg,58.5 ± 5.9 mg/dL
same,Blood glucose level (mg/dl) 5 hours after,[1]; 50 µg/kg,70.8 ± 5.5 mg/dL
same,Blood glucose level (mg/dl) 2 hours after,[1]; 500 µg/kg,69.9 ± 2.8*^2 mg/dl
same,Blood glucose level (mg/dl) 5 hours after,[1]; 500 µg/kg,72.6 ± 1.5*^2 mg/dl
same,Blood glucose level (mg/dl) 2 hours before,[1]; 50 µg/kg,84.2 ± 6.1 mg/dL
same,Blood glucose level (mg/dl) 2 hours before,[1]; 500 µg/kg,71.3 ± 4.0 mg/dL
same,Growth inhibition percent,[2]; compound in drinking water,53%
same,Tumor volume (mm^3),[2]; compound in drinking water from 24 hours after transplantation,1249 ± 168** mm^3
same,"Blood glucose level in 2 hours, percent from the initial level",[3]; 50 µg/kg,65.4 ± 4.3%
same,"Blood glucose level in 5 hours, percent from the initial level",[3]; 50 µg/kg,43.9 ± 4.9%
same,"Blood glucose level in 24 hours, percent from the initial level",[3]; 50 µg/kg,83.7 ± 6.6%
same,Blood glucose level: mg/dl in 2 hours,[3]; 50 µg/kg,94.4 ± 5.4 mg/dL
same,Blood glucose level: mg/dl in 5 hours,[3]; 50 µg/kg,64.1 ± 5.0 mg/dL
same,Blood glucose level: mg/dl in 24 hours,[3]; 50 µg/kg,122.2 ± 9.2 mg/dL
same,"Blood glucose level in 2 hours, percent from the initial level",[3]; 500 µg/kg,67.6 ± 3.6%
same,"Blood glucose level in 5 hours, percent from the initial level",[3]; 500 µg/kg,44.9 ± 4.5%
same,"Blood glucose level in 24 hours, percent from the initial level",[3]; 500 µg/kg,98.9 ± 10.2%
same,Blood glucose level: mg/dl in 2 hours,[3]; 500 µg/kg,98.8 ± 5.6 mg/dL
same,Blood glucose level: mg/dl in 5 hours,[3]; 500 µg/kg,65.1 ± 1.1 mg/dL
same,Blood glucose level: mg/dl in 24 hours,[3]; 500 µg/kg,143.4 ± 10.9 mg/dL
same,Blood glucose level: Initial level,[3]; 50 µg/kg,146.9 ± 8.2 mg/dL
same,Blood glucose level: Initial level,[3]; 500 µg/kg,145.2 ± 10.6 mg/dL
same,Chemiluminiscence intensity (mV) + σn-1,"[4]; 0.1 mM, control of the series as in the table",5670 ± 379 mV
same,relative effect: 1+/I-,[4]; 1 mM,0.72
same,Chemiluminiscence intensity (mV) + σn-1,"[4]; 1 mM, control of the series 5616 ± 173, 5391 ± 195, 7290 ± 128 or 6776 ± 150",4027 ± 683 mV
same,"Blood serum, MDA, nM/ml","[5]; intragastral 3 days with CCl4, 50 µg/kg",4.05 ± 0.198*^2 nM/ml
same,"Blood serum, MDA, nM/ml","[5]; intragastral 3 days with CCl4, 500 µg/kg",3.89 ± 0.11**^2 nM/ml
same,"Liver, MDA, nM/mg of tissue",[5]; 50 µg/kg,4.98 ± 0.13**^2 nM/mg of tissue
same,"Liver, diene conjugates, E232/mg of tissue",[5]; 50 µg/kg,16.25 ± 0.61 E232/mg of tissue
same,"Liver, diene ketones, trienes E278/mg of tissue",[5]; 50 µg/kg,8.42 ± 0.25**^2 E278/mg of tissue
same,"Liver, MDA, nM/mg of tissue",[5]; 500 µg/kg,5.01 ± 0.17**2 nM/mg of tissue
same,"Liver, diene conjugates, E232/mg of tissue",[5]; 500 µg/kg,15.89 ± 0.38 E232/mg of tissue
same,"Liver, diene ketones, trienes E278/mg of tissue",[5]; 500 µg/kg,8.24 ± 0.19*^2 E278/mg of tissue
same,Volume of paws (conditional units) Right,"[6]; 0.1 ml of 1% gel on right paw, 4 hours after carrageenan",2.13 ± 0.64 conditional units
same,Volume of paws (conditional units) left,"[6]; 1% gel group, left paw, 4 hours",1.83 ± 0.21 conditional units
same,Inflammation inhibition (%),"[6]; 1% gel, 4 hours",60%
same,Volume increment,"[6]; 1% gel, 4 hours",0.30 ±0.06*^l

# From EP2229935A1, “Peptide derivatives or pharmaceutically acceptable salts thereof, method for producing the same, use of said derivatives and pharmaceutical composition” (Nebolsin, Vladimir Evgenievich, priority 1997, dated 1999)
